This experiment deals with ROCK2 (Homo sapiens, UniProt O75116). As to the kind of experiment: ROCK assay: phosphorylation of FITC peptide substrate, LABCHIP 3000 mobility shift. The note with it: 5 μM ATP, 1.5 μM peptide substrate; read-out: ROCK2 Activity (ROCK IC50 range). It is filed as biochemical. The gist of the method: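 Rho kinase variant phosphorylates 1.5 μM FITC-AHA-AKRRRLSSLRA-OH with 5 μM ATP in 20 mM HEPES pH 7.5, 20 mM MgCl2, 0.015% Brij-35, 4 mM DTT, DMSO <2%. EDTA stops the reaction, and phospho and non-phospho peptides are resolved by LabChip 3000 mobility shift. IC50 from dose-response curve fit.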
ROCK2, sequence (O75116 whole entry, species assumed): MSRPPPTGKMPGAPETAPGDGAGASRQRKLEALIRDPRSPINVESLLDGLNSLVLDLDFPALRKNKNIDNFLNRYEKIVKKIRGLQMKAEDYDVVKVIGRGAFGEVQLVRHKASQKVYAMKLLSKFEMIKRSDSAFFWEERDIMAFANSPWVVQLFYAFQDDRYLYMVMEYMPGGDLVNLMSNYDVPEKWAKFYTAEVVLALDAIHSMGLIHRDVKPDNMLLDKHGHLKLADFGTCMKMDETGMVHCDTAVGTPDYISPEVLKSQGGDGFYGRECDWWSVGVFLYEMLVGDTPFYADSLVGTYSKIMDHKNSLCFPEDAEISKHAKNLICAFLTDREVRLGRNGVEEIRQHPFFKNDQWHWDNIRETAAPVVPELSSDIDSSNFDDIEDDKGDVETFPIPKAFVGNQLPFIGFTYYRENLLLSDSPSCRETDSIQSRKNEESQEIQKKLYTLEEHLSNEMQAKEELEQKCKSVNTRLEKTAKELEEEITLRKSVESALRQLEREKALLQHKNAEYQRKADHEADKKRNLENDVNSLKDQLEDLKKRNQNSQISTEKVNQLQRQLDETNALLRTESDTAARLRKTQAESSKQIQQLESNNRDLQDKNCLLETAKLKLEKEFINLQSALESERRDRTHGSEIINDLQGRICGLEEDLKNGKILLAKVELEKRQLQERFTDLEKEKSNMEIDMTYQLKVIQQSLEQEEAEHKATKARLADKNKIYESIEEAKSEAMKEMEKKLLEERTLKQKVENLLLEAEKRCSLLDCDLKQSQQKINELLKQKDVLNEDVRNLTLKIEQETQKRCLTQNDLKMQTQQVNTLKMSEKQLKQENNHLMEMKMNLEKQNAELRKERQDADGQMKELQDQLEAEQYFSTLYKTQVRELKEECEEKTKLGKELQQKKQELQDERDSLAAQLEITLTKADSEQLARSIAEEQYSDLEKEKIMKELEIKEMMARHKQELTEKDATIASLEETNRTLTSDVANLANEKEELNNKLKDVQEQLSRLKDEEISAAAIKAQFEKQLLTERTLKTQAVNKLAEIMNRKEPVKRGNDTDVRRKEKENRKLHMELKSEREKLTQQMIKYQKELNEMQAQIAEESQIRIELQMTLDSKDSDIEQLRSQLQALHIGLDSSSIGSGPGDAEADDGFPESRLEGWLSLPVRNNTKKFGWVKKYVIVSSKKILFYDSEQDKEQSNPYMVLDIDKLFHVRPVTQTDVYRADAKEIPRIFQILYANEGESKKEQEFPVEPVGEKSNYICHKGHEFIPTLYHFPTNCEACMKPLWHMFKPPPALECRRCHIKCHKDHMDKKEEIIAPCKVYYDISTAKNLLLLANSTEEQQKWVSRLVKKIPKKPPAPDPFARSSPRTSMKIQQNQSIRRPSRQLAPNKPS

This is an account of results in patent publication US9902702B2, “Spirocycloheptanes as inhibitors of rock” (BRISTOL-MYERS SQUIBB COMPANY, priority 2014, dated 2018).

Broadly, the IC50 is the midpoint of a concentration-inhibition curve.

With `CC(C)(O)Cn1nc(C(=O)N[C@H]2CC3(C2)C[C@H](c2n[nH]c(=O)c4ccccc42)C3)c2ccc(-c3ccccc3)cc21` (stereo partly drawn) [Example 143, 1-(2-hydroxy-2-methylpropyl)-N-((aR)-6-(4-oxo-3,4-dihydrophthalazin-1-yl)spiro[3.3]heptan-2-yl)-6-phenyl-1H-indazole-3-carboxamide], the IC50 lay within 2.01 to 5 nM.

Consider `Cc1nn(C)c(C)c1-c1ccc2c(C(=O)NC3CC4(C3)CC(c3n[nH]c(=O)c5ccccc35)C4)cnn2c1` [Example 221, N-((aR)-6-(4-oxo-3,4-dihydrophthalazin-1-yl)spiro[3.3]heptan-2-yl)-6-(1,3,5-trimethyl-1H-pyrazol-4-yl)pyrazolo[1,5-a]pyridine-3-carboxamide], for which the concentration for half-maximal inhibition (IC50) fell in the range of 0.2 to 2 nM.

For `O=C(NC1CC2(C1)CC(c1n[nH]c(=O)c3ccccc13)C2)c1cnn2cccnc12` [Example 282, N-((aR)-6-(4-oxo-3,4-dihydrophthalazin-1-yl)spiro[3.3]heptan-2-yl)pyrazolo[1,5-a]pyrimidine-3-carboxamide], the IC50 lay in the range of 100 to 2100 nM.

As for `O=C(NC1CC2(C1)CC(c1n[nH]c(=O)c3ccccc13)C2)c1cnn2cc(N3CC(F)(F)C3)ccc12` [Example 92, 6-(3,3-difluoroazetidin-1-yl)-N-((aR)-6-(4-oxo-3,4-dihydrophthalazin-1-yl)spiro[3.3]heptan-2-yl)pyrazolo[1,5-a]pyridine-3-carboxamide], the IC50 was 0.2 to 2 nM.

For `[H][C@]1(c2n[nH]c(=O)c3ccccc32)C[C@]2(C[C@@H](NC(=O)c3ccc(NC=O)c(O)c3)C2)C1` (stereo partly drawn) [Example 311, 4-formamido-3-hydroxy-N-((aR)-6-(4-oxo-3,4-dihydrophthalazin-1-yl)spiro[3.3]heptan-2-yl)benzamide], the IC50 is 5.1 to 15 nM.

Regarding `O=c1[nH]nc([C@H]2CC3(C[C@H](Nc4nnc(-c5ccccc5)s4)C3)C2)c2ccccc12` (stereo partly drawn) [Example 43, 4-((aR)-6-((5-Phenyl-1,3,4-thiadiazol-2-yl)amino)spiro[3.3]heptan-2-yl)phthalazin-1(2H)-one(2H)-one], the IC50 is 5.1 to 15 nM.

As to `[H][C@]1(c2n[nH]c(=O)c3ccccc32)C[C@]2(C[C@@H](n3c(=O)[nH]c4ccccc43)C2)C1` (stereo partly drawn) [Example 461, 4-((aR)-6-(2-oxo-2,3-dihydro-1H-benzo[d]imidazol-1-yl)spiro[3.3]heptan-2-yl)phthalazin-1(2H)one], the IC50 lay within 100 to 2100 nM.

Regarding `[H][C@]1(c2n[nH]c(=O)c3ccccc32)C[C@]2(C[C@@H](NC(=O)c3cnc4c(Cl)cccn34)C2)C1` (stereo partly drawn) [Example 382, 8-chloro-N-((aR)-6-(4-oxo-3,4-dihydrophthalazin-1-yl)spiro[3.3]heptan-2-yl)imidazo[1,2-a]pyridine-3-carboxamide], the IC50 lay within 2.01 to 5 nM.

For the compound `CS(=O)(=O)N1CCc2c(C(=O)N[C@H]3CC4(C3)C[C@H](c3n[nH]c(=O)c5ccccc53)C4)csc2C1` (stereo partly drawn) [Example 276, 6-(methylsulfonyl)-N-((aR)-6-(4-oxo-3,4-dihydrophthalazin-1-yl)spiro[3.3]heptan-2-yl)-4,5,6,7-tetrahydrothieno[2,3-c]pyridine-3-carboxamide], the IC50 was in the range of 15.1 to 100 nM.

Take `O=C(N[C@H]1CC2(C1)C[C@H](c1n[nH]c(=O)c3ccccc31)C2)c1ccn(CC(F)(F)F)n1` (single isomer, unassigned) [Example 18]: the concentration for half-maximal inhibition (IC50) fell in the range of 100 to 2100 nM.

As to `CC(C)(O)COc1ccc2c(C(=O)NC3CC4(C3)CC(c3c[nH]c(=O)c5ccccc35)C4)cnn2c1` (stereo not shown) [Example 271, 6-(2-hydroxy-2-methylpropoxy)-N-(6-(1-oxo-1,2-dihydroisoquinolin-4-yl)spiro[3.3]heptan-2-yl)pyrazolo[1,5-a]pyridine-3-carboxamide], the IC50 was in the range of 2.01 to 5 nM.

For the compound `O=C(NC1CC2(C1)CC(c1n[nH]c(=O)c3ccccc13)C2)c1cnn2cc(CCC(=O)N3CCOCC3)ccc12` [Example 205, 6-(3-morpholino-3-oxopropyl)-N-((aR)-6-(4-oxo-3,4-dihydrophthalazin-1-yl)spiro[3.3]heptan-2-yl)pyrazolo[1,5-a]pyridine-3-carboxamide], the half-maximal inhibitory concentration (IC50) lay within 2.01 to 5 nM.

`[H][C@]1(c2n[nH]c(=O)c3ccccc32)C[C@]2(C[C@@H](NC(=O)c3cnc4cc(OC(F)F)ccn34)C2)C1` (stereo partly drawn) [Example 406, 7-(difluoromethoxy)-N-((aR)-6-(4-oxo-3,4-dihydrophthalazin-1-yl)spiro[3.3]heptan-2-yl)imidazo[1,2-a]pyridine-3-carboxamide]: the IC50 is 0.2 to 2 nM.

Turning to `O=C(NC1CC2(C1)CC(c1n[nH]c(=O)c3ccccc13)C2)c1cnn2cc(OCC(O)(C(F)(F)F)C(F)(F)F)ccc12` [Example 98, N-((aR)-6-(4-oxo-3,4-dihydrophthalazin-1-yl)spiro[3.3]heptan-2-yl)-6-(3,3,3-trifluoro-2-hydroxy-2-(trifluoromethyl)propoxy)pyrazolo[1,5-a]pyridine-3-carboxamide], the IC50 was 2.01 to 5 nM.

Take `O=C(NC1CC2(C1)CC(c1n[nH]c(=O)c3ccccc13)C2)c1cnn2cc(-n3cncn3)ccc12` (stereo not drawn) [Example 178, N-((αR)-6-(4-oxo-3,4-dihydrophthalazin-1-yl)spiro[3.3]heptan-2-yl)-6-(1H-1,2,4-triazol-1-yl)pyrazolo[1,5-α]pyridine-3-carboxamide]: the IC50 was 2.01 to 5 nM.

On to `[H][C@]1(c2n[nH]c(=O)c3ccccc32)C[C@]2(C[C@@H](NC(=O)c3cnc4cc(NCC(C)(C)O)ccn34)C2)C1` (stereo partly drawn) [Example 409, 7-((2-hydroxy-2-methylpropyl)amino)-N-((aR)-6-(4-oxo-3,4-dihydrophthalazin-1-yl)spiro[3.3]heptan-2-yl)imidazo[1,2-a]pyridine-3-carboxamide,], for which the IC50 was 2.01 to 5 nM.

For `CC(C)(O)Cn1nc(C(=O)NC2CC3(C2)CC(c2n[nH]c(=O)c4ccccc24)C3)c2ccc(-c3cccc(Cl)c3)cc21` (stereo not shown) [Example 156, 6-(3-chlorophenyl)-1-(2-hydroxy-2-methylpropyl)-N-((αR)-6-(4-oxo-3,4-dihydrophthalazin-1-yl)spiro[3.3]heptan-2-yl)-1H-indazole-3-carboxamide], the IC50 fell in the range of 5.1 to 15 nM.

For the compound `[H][C@]1(c2n[nH]c(=O)c3ccccc32)C[C@]2(C[C@@H](NC(=O)c3ccc(-c4cnn(C)c4C(F)(F)F)c(F)c3)C2)C1` (stereo partly drawn) [Example 447, 3-fluoro-4-(1-methyl-5-(trifluoromethyl)-1H-pyrazol-4-yl)-N-((aR)-6-(4-oxo-3,4-dihydrophthalazin-1-yl)spiro[3.3]heptan-2-yl)benzamide], the IC50 was 2.01 to 5 nM.

In the case of `O=C(NC1CC2(C1)CC(c1n[nH]c(=O)c3ccccc13)C2)c1cnn2cc(-c3cnn(C4CCOC4)c3)ccc12` [Example 226, N-((aR)-6-(4-oxo-3,4-dihydrophthalazin-1-yl)spiro[3.3]heptan-2-yl)-6-(1-(tetrahydrofuran-3-yl)-1H-pyrazol-4-yl)pyrazolo[1,5-a]pyridine-3-carboxamide], the IC50 was 0.2 to 2 nM.

With `O=C(NC1CC2(C1)CC(c1n[nH]c(=O)c3ccccc13)C2)c1cnn2cc(N3CCC(F)(F)C3)ccc12` [Example 90, 6-(3,3-difluoropyrrolidin-1-yl)-N-((aR)-6-(4-oxo-3,4-dihydrophthalazin-1-yl)spiro[3.3]heptan-2-yl)pyrazolo[1,5-a]pyridine-3-carboxamide], the IC50 lay within 0.2 to 2 nM.

Take `Cc1cc(C)cc(Nc2ccc3ncc(C(=O)NC4CC5(C4)CC(c4n[nH]c(=O)c6ccccc46)C5)n3n2)c1` [Example 283, 6-((3,5-dimethylphenyl)amino)-N-((aR)-6-(4-oxo-3,4-dihydrophthalazin-1-yl)spiro[3.3]heptan-2-yl)imidazo[1,2-b]pyridazine-3-carboxamide]: the IC50 lay in the range of 100 to 2100 nM.

Consider `COc1ccc(-n2nc(C(=O)NC3CC4(C3)CC(c3n[nH]c(=O)c5ccccc35)C4)c3c2C(=O)NCC3)cc1` [Example 289, 1-(4-methoxyphenyl)-7-oxo-N-((aR)-6-(4-oxo-3,4-dihydrophthalazin-1-yl)spiro[3.3]heptan-2-yl)-4,5,6,7-tetrahydro-1H-pyrazolo[3,4-c]pyridine-3-carboxamide], for which the IC50 lay within 15.1 to 100 nM.

Take `[H][C@]1(c2n[nH]c(=O)c3ccccc32)C[C@]2(C[C@@H](NC(=O)c3ccc4[nH]c(C)nc4c3)C2)C1` (stereo partly drawn) [Example 309, 2-methyl-N-((aR)-6-(4-oxo-3,4-dihydrophthalazin-1-yl)spiro[3.3]heptan-2-yl)-1H-benzo[d] imidazole-5-carboxamide]: the half-maximal inhibitory concentration (IC50) fell in the range of 15.1 to 100 nM.

On to `O=C(NC1CC2(C1)CC(c1n[nH]c(=O)c3ccccc13)C2)c1cnn2cc(N3CCC(F)(F)CC3)ccc12` [Example 82, 6-(4,4-difluoropiperidin-1-yl)-N-((aR)-6-(4-oxo-3,4-dihydrophthalazin-1-yl)spiro[3.3]heptan-2-yl)pyrazolo[1,5-a]pyridine-3-carboxamide], for which the IC50 lay in the range of 2.01 to 5 nM.

For the compound `Cc1sc(N2CCC(C#N)C2)nc1C(=O)NC1CC2(C1)CC(c1n[nH]c(=O)c3ccccc13)C2` [Example 55, 2-((S)-3-cyanopyrrolidin-1-yl)-5-methyl-N-((aR)-6-(4-oxo-3,4-dihydrophthalazin-1-yl)spiro[3.3]heptan-2-yl)thiazole-4-carboxamide], the IC50 lay in the range of 5.1 to 15 nM.

In the case of `Cc1c(OCC(C)(C)O)ccc2c(C(=O)NC3CC4(C3)CC(c3n[nH]c(=O)c5ccccc35)C4)cnn12` [Example 112, 6-(2-hydroxy-2-methylpropoxy)-7-methyl-N-((aR)-6-(4-oxo-3,4-dihydrophthalazin-1-yl)spiro[3.3]heptan-2-yl)pyrazolo[1,5-a]pyridine-3-carboxamide], the IC50 lay within 2.01 to 5 nM.

Regarding `O=C(NC1CC2(C1)CC(c1n[nH]c(=O)c3ccccc13)C2)c1cnn2ccc(N3CCOCC3)cc12` [Example 84, 5-morpholino-N-((aR)-6-(4-oxo-3,4-dihydrophthalazin-1-yl)spiro[3.3]heptan-2-yl)pyrazolo[1,5-a]pyridine-3-carboxamide], the IC50 lay in the range of 5.1 to 15 nM.

In the case of `Cc1nnc(NC(=O)C2CC3(C2)CC(c2n[nH]c(=O)c4ccccc24)C3)s1` (stereo not shown) [Example 48, N-(5-methyl-1,3,4-thiadiazol-2-yl)-6-(4-oxo-3,4-dihydrophthalazin-1-yl)spiro[3.3]heptane-2-carboxamide], the IC50 lay within 100 to 2100 nM.
